Earlier results as cited in patent US20110092597A1, “METHOD FOR TREATING HERPES VIRUS INFECTION” (priority 2009, published 2011).

Legend:
[1] = not given; remark: listed apart in the source

| Solubility in water | Bioavailability [1] | SMILES |
| --- | --- | --- |
| relatively low |  | O=C(O)Cc1ccccc1Nc1c(Cl)cccc1Cl [Diclofenac, 2-(2,6-dichloro-anilino)-phenyl-acetic acid] |
| poorly soluble | low | Nc1nc2c(ncn2COCCO)c(=O)[nH]1 [acyclovir, acycloguanosine] |
